Data: publication doi:10.1101/2025.08.17.670703v1 (biorxiv, 2025)

Experiments:
[1] = molecular target: T1, HEV-PLpro (HEV papain-like cysteine protease) (Hepatitis E virus (strain Pakistan), UniProt P33424); assay: fluorogenic protease assay; type: biochemical
T1 sequence (P33424 432-592): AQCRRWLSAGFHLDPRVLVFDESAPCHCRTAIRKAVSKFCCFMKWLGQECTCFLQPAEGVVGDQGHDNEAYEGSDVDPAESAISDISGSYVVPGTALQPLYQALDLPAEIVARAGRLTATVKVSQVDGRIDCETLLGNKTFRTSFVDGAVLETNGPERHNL

[2] = molecular target: T1, HEV-PLpro (HEV papain-like cysteine protease); assay: fluorogenic protease assay, secondary plot of Km' vs [I]; type: biochemical

In the case of `NC(=O)c1ncn([C@@H]2O[C@H](CO)[C@@H](O)[C@H]2O)n1` [RBV, ribavirin], the IC50 [1] is reported as 78.3 µM and the Ki [2] is reported as 47.6 µM.
